# Patent US20250120932A1, “PHARMACEUTICAL COMPOSITION” (NEUROPRO THERAPEUTICS, INC., priority 2021, published 2025)
# Values joined by “and” are separate entries in the source; they are usually repeats but may differ in a detail not shown here. Identical values can stand only once. Marks after values point to notes of the source that are not given here.
# Experiments:
# physchem = experiment: physchem
# Text: Crucial to the efficacy of any treatment by a pharmaceutical composition is the overall systemic bioavailability of the pharmaceutical composition used for said treatment. […] LogP is one measure of lipophyilicity, and is the octal:water partition coefficient expressed as a log ratio of molecule in octanol relative to water after mixing.
# [1] = Nasal solution solubility evaluation in solvent/co-solvent systems (HPLC-UV); assay type: physicochemical; conditions: organic solvent or mixture, thermodynamic from solid; Caprylocaproyl Polyoxylglycerides (Labrasol ALF), Composition 8
# Protocol: The solvents were chosen from a group consisting of Caprylocaproyl Polyoxylglycerides (Labrasol ALF), propylene glycol, PEG-400, vitamin E TPGS, ethanol, water, and any combination thereof.
# 50 g stock solutions of each solvent system were prepared. The active solutions 3.0 mL of each solvent was aliquoted to separate 8 mL clear glass vials. […] Every 30 minutes the solutions were inspected. […] This process was repeated until visible saturation of all solvent systems was obtained. Prior to analysis, the samples were centrifuged at 5,000 RPM for 3 minutes and filtered through a 0.45 μm nylon syringe filter to remove excess solids.
# The dose calculations included in Table 42 are based on 75% of the concentration at saturation. This is to reduce the risk of precipitation/crystallization due to environmental fluctuations. Additionally, two dose volumes (0.2/0.5 mL) were selected in accordance with the standard range for nasal delivery. The total dose illustrated is based on the equivalent volume delivered to each nostril, 0.4-1.0 mL total per dose.
# [2] = Pharmacokinetic profile after single intravenous or oral gavage dose in rats; conditions: for C0: back predicted to time 0
# Protocol: Animals were dosed via oral gavage or intravenous injection once on Day 1 at a volume of 5 mL/kg for Group 1 and 10 mL/kg for Group 2. The vehicle was 40% (v/v) Polyethylene Glycol 400 (PEG400), 20% (v/v) Propylene Glycol, 5% (v/v) Ethanol, and 35% (v/v) water for Group 1 and the vehicle was 0.5% (w/v) Carboxymethylcellulose (medium viscosity) in reverse osmosis water for Group 2.
# Blood samples (approximately 0.5 mL) were collected from nonfasted toxicokinetic animals via a jugular vein on Day 1 of the dosing phase, as indicated in Table 18
# Blood was collected into tubes containing potassium (K2) EDTA as the anticoagulant. Samples were maintained on wet ice and were centrifuged within 30 minutes of collection. Plasma was harvested and stored on dry ice until placed in a freezer, set to maintain −60 to −80° C., until shipped on dry ice to Origin Bioanalytical Laboratory, Inc. for analysis.
# Pharmacokinetic parameters were derived using non-compartmental methods employing Phoenix WinNonlin® version 8.1 (Pharsight Corp; St. Louis, MO). The PK parameters defined previously in Table 10 were calculated by non-compartmental methods using composite plasma concentration-time data obtained from 3 rats/sex/time point/dose. The area under the concentration-time curve from zero time (pre-dose) to the last time point was calculated by a combination of linear and logarithmic trapezoidal methods. The linear trapezoidal method was employed for all incremental trapezoids arising from increasing concentrations and the logarithmic trapezoidal method was used for those arising from decreasing concentrations (linear up/log down method). Nominal blood sampling times were used in the analysis. […] Individual BQL results were set to zero for all calculations. No animals were excluded from the analysis.
# in vitro = conditions: human, Caco-2, pH 7.4, % Solution Recovery
# Protocol: Caco-2 cells purchased from ATCC were seeded onto […] (PET) in 96-well Corning Insert plates at 1×10^5 cells/cm^2, and refreshed medium every 4˜5 days until to the 21st to 28th day for confluent cell monolayer formation.
# The transport buffer in the study was HBSS with 10.0 mM HEPES at pH 7.40±0.05. Test compound was tested at 2.00 μM bi-directionally in duplicate. Digoxin was tested at 10.0 μM bi-directionally in duplicate, while nadolol and metoprolol were tested at 2.00 μM in A to B direction in duplicate. Final DMSO concentration was adjusted to less than 1%. The plate was incubated for 2 hours in CO2 incubator at 37±1° C., with 5% CO2 at saturated humidity without shaking. And all samples after mixed with acetonitrile containing internal standard were centrifuged at 3200×g for 10 min. For nadolol and metoprolol, 200 μL supernatant solution was diluted with 600 μL ultra-pure water for LC-MS/MS analysis. For digoxin and test compounds, 200 μL supernatant solution was diluted with 200 μL ultra-pure water for LC-MS/MS analysis. Concentrations of test and control compounds in starting solution, donor solution, and receiver solution were quantified by LC-MS/MS methodologies, using peak area ratio of analyte/internal standard. After transport assay, lucifer yellow rejection assay was applied to determine the Caco-2 cell monolayer integrity.
# The apparent permeability coefficient Papp (cm/s) was calculated using the equation: […]
# Where dCp/dt is the cumulative concentration of compound in the receiver chamber as a function of time (μM/s); Vr is the solution volume in the receiver chamber (0.075 mL on the apical side, 0.25 mL on the basolateral side); A is the surface area for the transport, i.e. 0.0804 cm^2 for the area of the monolayer; Co is the initial concentration in the donor chamber (μM). The efflux ratio was calculated using the equation: […]
# Percent recovery was calculated using the equation: […]
# Where Vd is the volume in the donor chambers (0.075 mL on the apical side, 0.25 mL on the basolateral side); Ca and Cr are the final concentrations of transport compound in donor and receiver chambers, respectively.
# [3] = Solubility at 50° C. in common SEDDS excipients by visual inspection; assay type: physicochemical
# [4] = Solubility in 1:1 mixture of Gelucire 44/14 and Span 80 (tablet solubilizer); assay type: physicochemical
# Protocol: After successful completion of the dry blend tablet formulation, efforts were made to attempt to enhance solubilization of the drug. Upon successful creation of the tablet prototype batch A, the tablet prototype batch B was developed wherein Bumetanide Dibenzylamide solubilizers were incorporated directly into the dry blend tablet formulation. […] The 1:1 ratio of Lauroyl Polyoxyl-32 Glycerides (Gelucire 44/14), to Sorbitan Ester (Span 80), was determined by combined melting point, taste, viscosity, and solubilizing ability. The ratio provided a semi-solid, which may be liquefied upon application of low heat. […] This mixture was kept under constant stirring to ensure complete even dispersal of ingredients. Continuing under constant heating and mixing, Neusilin US2 (Magnesium Aluminometasilicate) was slowly added to adsorb the viscous mixture onto its particles rough surface. Upon complete adsorption the heat was removed with continued mixing until room temperature was reached. The cooled, hot-melt granulation was then sieved and blended with sieved Polyplasdone XL (Super Disintegrate), Cabosil M5P (fumed silica), and Citric Acid Monohydrate, and Magnesium Stearate. Table 58 illustrates the formulation employed for a sublingual tablet prototype batch B, which was utilized for canine studies. […]
# [5] = Effect of water content on solubility (formulations F1-F3); assay type: physicochemical
# Protocol: Increasing amounts of PVP and Poloxamer were added to compositions F1-F3 to inhibit rapid precipitation upon dilution in water.
# The solutions were then cooled to ambient room temperature and mixed for ˜4 hours prior to filtering and being evaluated by an assay.
# [6] = male, Hsd: Sprague Dawley, rat, plasma, iv, 10 mg/kg
# [7] = rats, oral 30 mg/kg vs IV 10 mg/kg
compound,measurement,setting,value
"CCCCNc1cc(C(=O)N(Cc2ccccc2)Cc2ccccc2)cc(S(N)(=O)=O)c1Oc1ccccc1 [Bumetanide Dibenzylamide, N, N-dibenzyl 3-aminosulfonyl-5-butylamino-4-phenoxybenzamide]",logP,physchem,~5.9
same,solubility at 8 h,[1],~66 mg/mL
same,Plasma Bumetanide Dibenzylamide concentration,"[2]; male rats, IV bolus 10 mg/kg, 1 h, 10 mg/kg",1040 ng/mL
same,AUC(0-inf),[2]; [6],3730 ng·h/mL
same,Vd,[2]; [6],10.1 L/kg
same,clearance,[2]; [6],44.7 mL/min/kg
same,C0,"[2]; male, Hsd: Sprague Dawley, rat, plasma, iv, 10 mg/kg, C0, rats, IV bolus 10 mg/kg",2780 ng/mL
same,concentration at 0.08 h,"[2]; male, Hsd: Sprague Dawley, rat, plasma, iv, 10 mg/kg, Plasma Bumetanide Dibenzylamide concentration, male rats, IV bolus 10 mg/kg, 0.08 h",2510 ng/mL
same,concentration at 4 h,"[2]; male, Hsd: Sprague Dawley, rat, plasma, po, 30 mg/kg, Plasma Bumetanide Dibenzylamide concentration, male rats, oral 30 mg/kg, 4 h",4.56 ng/mL
same,concentration at 1 h,"[2]; male, Sprague Dawley, rat, plasma, iv, 10 mg/kg, Plasma Bumetanide Dibenzylamide concentration, male rats, IV bolus 10 mg/kg, 1 h",993 ng/mL
same,C0,"[2]; rats, IV bolus 10 mg/kg, 10 mg/kg",2720 ng/mL
same,Fabs (%),[2]; [7],0.34% and 0.32%
same,Fabs (ratio),[2]; [7],0.0034 and 0.0032
same,"recovery at 2 h, 2 μM",in vitro,< 50%
same,"Bumetanide Dibenzylamide, in solution","[3]; Captex 300 (Caprylic/Capric Triglyceride, Medium Chain Triglyceride), 50° C.",<1* mg/ml
same,"Bumetanide Dibenzylamide, in solution","[3]; Drakeol 6VR LT (Mineral Oil), 50° C.",<1* mg/ml
same,"Bumetanide Dibenzylamide, in solution","[3]; Kolliphor EL (Polyoxyl 35 castor oil), 50° C.",13.5 mg/mL
same,"Bumetanide Dibenzylamide, in solution","[3]; Labrafac Lipophile WL 1349 (Medium Chain Triglyceride), 50° C.",3 mg/mL
same,"Bumetanide Dibenzylamide, in solution","[3]; Labrafil M 1944CS (Oleoyl polyoxyl 1-6 glycerides), 50° C.",4.5 mg/mL
same,"Bumetanide Dibenzylamide, in solution","[3]; Labrasol ALF (Caprylocaproyl Polyoxylglycerides), 50° C.",63 mg/mL
same,"Bumetanide Dibenzylamide, in solution","[3]; Lauroyl Plyoxyl-32 Glycerides (Gelucire 44/14), 50° C.",106 mg/mL
same,"Bumetanide Dibenzylamide, in solution","[3]; Oleic Acid, 50° C.",<1* mg/ml
same,"Bumetanide Dibenzylamide, in solution","[3]; Oleyl Alcohol, 50° C.",<1* mg/ml
same,"Bumetanide Dibenzylamide, in solution","[3]; Polyethylene Glycol 400, 50° C.",8.6 mg/mL
same,"Bumetanide Dibenzylamide, in solution","[3]; Propylene Glycol, 50° C.",2 mg/mL
same,"Bumetanide Dibenzylamide, in solution","[3]; Sorbitan Ester (Span 80), 50° C.",250 mg/mL
same,"Bumetanide Dibenzylamide, in solution","[3]; Soybean Oil, 50° C.",2 mg/mL
same,solubility,[4],approximately 500 mg/g
same,maximum concentration of Bumetanide Dibenzylamide,"[5]; rectal gel, about 20% water",about 2.4%
same,maximum concentration of Bumetanide Dibenzylamide,"[5]; rectal paste, no water",about 4.16%
